# Results as given in US20140242180A1, “NANOPARTICLES FOR CONTROLLING BLEEDING AND DRUG DELIVERY” (CASE WESTERN RESERVE UNIVERSITY, priority 2011, published 2014).
# Entries after “also recorded” stand apart in the source; their conditions may differ.
# Tested on: activated platelets
# Experiment: in vitro screening of activated labeled platelets binding to polymer-modified surfaces
# Assay type: cell-based
# Details: preliminary work; PEG 4600
# From the text: An in vitro system was developed for high throughput screening of the coagulation efficiency of the synthetic platelets with the platelets labeled using CellTracker green following to facilitate ease of analysis. Essentially, this assay involves activating platelets which have been previously labeled with CellTracker and looking at the number that bind to surfaces modified with a polymer systems under agitation. This assay was validated with collagen. This system allowed one to efficiently and independently vary the PEG molecular weight and RGD motif (i.e. RGD, RGDS, and GRGDS).
substance,measurement,value
GRGDS [GRGDS peptide],adhesion and aggregation of activated platelets,efficient adhesion and aggregation; also recorded: good binding and adhesion
